Measured values reported in patent US5374649A, “Indole derivatives and pharmaceutical use thereof” (Glaxo S.p.A., priority 1992, dated 1994).

How the values were obtained:
[1] = molecular target: T1, strychnine insensitive glycine binding site located on the NMDA receptor complex (Rattus norvegicus, UniProt P35439); experiment: affinity for strychnine insensitive glycine binding site (procedure of Kishimoto H. et al.); settings: procedure of Kishimoto H. et al. J. Neurochem 1981, 37, 1015-1024
T1 construct: from tissue
Protocol: The potent and selective action of the compounds of the invention at the strychnine- insensitive glycine binding site present on the NMDA receptor complex may be readily determined using conventional test procedures. Thus the ability to bind at the strychnine insensitive glycine binding site was determined using the procedure of Kishimoto H et al. J Neurochem 1981, 37 1015-1024. The selectivity of the action of compounds of the invention for the strychnine insensitive glycine site was confirmed in studies at other ionotropic known excitatory amino acid receptors.
The affinity of the compound of the invention for strychnine insensitvie glycine binding site was determined using the procedure of Kishimoto H. et al J. Neurochem 1981, 37, 1015-1024.

NMDA induced convulsions = experiment: inhibition of NMDA induced convulsions in mice (procedure of Chiamulera C et al.); format: in vivo; settings: mouse; iv administration; intracerebroventricular injection of NMDA; read-out: ED50 (dose required to protect 50% of the animals from the convulsive action of NMDA)
Protocol: The ability of compounds of the invention to inhibit NMDA included convulsions in the mouse was determined using the procedure of Chiamulera C et al. Psychopharmacology 1990, 102, 551-552. In this test the ability of the compound to inhibit the generalized seizures induced by an intracerebroventricular injection of NMDA in mice was examined at a number of dose levels. […] This expressed as mg/kg is referred to as the ED50 value.

Row | SMILES | pKi [1] | ED50 (NMDA induced convulsions) [mg/kg]
1 | O=C(/C=C/c1c(C(=O)O)[nH]c2cc(Cl)cc(Cl)c12)Nc1cc([N+](=O)[O-])ccc1O [Example 2i] | 8.0 | 
2 | O=C(/C=C/c1c(C(=O)O)[nH]c2cc(Cl)cc(Cl)c12)Nc1ccc(F)cc1F [Example 2h, (E) 3-[2-(2,4-Difluorophenylaminocarbonyl)ethenyl]-4,6-dichloroindole-2-carboxylic acid] | 8.3 | 0.3
3 | COc1ccc(NC(=O)/C=C/c2c(C(=O)O)[nH]c3cc(Cl)cc(Cl)c23)cc1OC [Example 2f, (E) 3-[2-(3,4-Dimethoxyphenylaminocarbonyl)ethenyl]-4,6-dichloroindole-2-carboxylic acid] | 8.1 | 0.3
4 | CCOc1ccc(NC(=O)/C=C/c2c(C(=O)O)[nH]c3cc(Cl)cc(Cl)c23)cc1 [Example 2g, (E) 3-[2(4-Ethoxyphenylaminocarbonyl)ethenyl]-4,6-dichloroindole-2-carboxylic acid] | 8.3 | 0.1
5 | O=C(/C=C/c1c(C(=O)O)[nH]c2cc(Cl)cc(Cl)c12)Nc1ccccc1O [Example 2e, (E) 3-[2-(2-Hydroxyphenylaminocarbonyl)ethenyl]-4,6-dichloroindole-2-carboxylic acid] | 8.4 | 
